Measured values published in PubChem BioAssay AID212 (DTP/NCI, 2004).
Several values for one entry are separate records, joined by “and”; a condition that tells them apart may be missing. Equal entries are not always repeated. Records with an inconclusive call do not appear.

System: BDF1 mice, colon carcinoma 38 sc, T/C %
Experiment: NCI In Vivo Anticancer Drug Screen. Data for tumor model Colon Carcinoma 38 (subcutaneous) in B6D2F1 (BDF1) mice
Details: endpoint: median tumor weight (est.), higher = larger tumour
Procedure, shortened: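 Mice with transplanted tumors are treated with compound or vehicle. Survival or tumor size is then measured in both groups. The ratio of treated to control gives the reported figure.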

[1] = dose: 8.0 mg/kg/injection, schedule: Q07DX003 (ip), vehicle: saline with Tween-80
[2] = dose: 32.0 mg/kg/injection, schedule: Q07DX003 (ip), vehicle: saline with Tween-80
[3] = dose: 100.0 mg/kg/injection, schedule: Q07DX002 (ip), vehicle: saline with Tween-80
[4] = dose: 25.0 mg/kg/injection, schedule: Q07DX002 (ip), vehicle: Klucel (hydroxypropylcellulose) (HPC)
[5] = dose: 50.0 mg/kg/injection, schedule: Q07DX002 (ip), vehicle: Klucel (hydroxypropylcellulose) (HPC)
[6] = dose: 100.0 mg/kg/injection, schedule: Q07DX002 (ip), vehicle: Klucel (hydroxypropylcellulose) (HPC)
[7] = dose: 200.0 mg/kg/injection, schedule: Q07DX002 (ip), vehicle: Klucel (hydroxypropylcellulose) (HPC)
[8] = dose: 400.0 mg/kg/injection, schedule: Q07DX002 (ip), vehicle: Klucel (hydroxypropylcellulose) (HPC)

CC1=C(/C=C/C(C)=C/C=C/C(C)=C/C(=O)O)C(C)(C)CCC1
T/C (dose: 3.12 mg/kg/injection, schedule: Q07DX003 (ip), vehicle: saline with Tween-80): 87 % of control
T/C (dose: 6.25 mg/kg/injection, schedule: Q07DX003 (ip), vehicle: saline with Tween-80): 96 % of control
T/C [1]: 103 % of control
T/C (dose: 12.5 mg/kg/injection, schedule: Q07DX003 (ip), vehicle: saline with Tween-80): 99 % of control
T/C (dose: 25.0 mg/kg/injection, schedule: Q07DX003 (ip), vehicle: saline with Tween-80): 100 % of control
T/C [2]: 98 % of control
T/C (dose: 64.0 mg/kg/injection, schedule: Q07DX003 (ip), vehicle: saline with Tween-80): 102 % of control

CC(=O)OCC1C(=O)OCC1C(=O)N1Cc2cc3ccccc3nc2C1 (stereo not drawn)
T/C (dose: 4.0 mg/kg/injection, schedule: Q07DX002 (ip), vehicle: saline with Tween-80): 88 % of control
T/C [1]: 230 % of control
T/C (dose: 16.0 mg/kg/injection, schedule: Q07DX003 (ip), vehicle: saline with Tween-80): 191 % of control
T/C [2]: 30 % of control
T/C (dose: 64.0 mg/kg/injection, schedule: Q07DX002 (ip), vehicle: saline with Tween-80): 85 % of control and 102 % of control
T/C (dose: 128.0 mg/kg/injection, schedule: Q07DX002 (ip), vehicle: saline with Tween-80): 115 % of control
T/C (dose: 128.0 mg/kg/injection, schedule: Q07DX003 (ip), vehicle: saline with Tween-80): 107 % of control

CNC(=O)OCc1c(COC(=O)NC)c(-c2ccccc2)n(C)c1-c1ccccc1
T/C (dose: 100.0 mg/kg/injection, schedule: Q07DX002 (ip), vehicle: distilled water + Tween-80): 62 % of control

CCN(CC)CCOC(=O)Cc1cccc2c(=O)cc(-c3ccc(Cl)cc3)oc12
T/C [3]: 48 % of control
T/C (dose: 200.0 mg/kg/injection, schedule: Q07DX002 (ip), vehicle: saline with Tween-80): 4 % of control

C=C1C(=O)O[C@H]2/C=C(/C)C3=CC(=O)[C@@](C)(C[C@@H](OC(=O)/C(C)=C\C)C12)O3 (stereo partly drawn)
T/C (dose: 3.12 mg/kg/injection, schedule: Q07DX002 (ip), vehicle: Klucel (hydroxypropylcellulose) (HPC)): 63 % of control
T/C (dose: 6.25 mg/kg/injection, schedule: Q07DX002 (ip), vehicle: Klucel (hydroxypropylcellulose) (HPC)): 95 % of control
T/C (dose: 12.5 mg/kg/injection, schedule: Q07DX002 (ip), vehicle: Klucel (hydroxypropylcellulose) (HPC)): 58 % of control
T/C [4]: 79 % of control

Cc1ccc(S(=O)(=O)NC(=O)C2C(=O)CC3(CCCCC3)CC2=O)cc1
T/C [5]: 104 % of control
T/C [6]: 112 % of control
T/C [7]: 95 % of control
T/C [8]: 102 % of control

O=C(O)CCc1cccc2c(=O)cc(-c3ccccc3)oc12
T/C (dose: 100.0 mg/kg/injection, schedule: Q07DX002 (ip), vehicle: saline): 60 % of control
T/C (dose: 200.0 mg/kg/injection, schedule: Q07DX002 (ip), vehicle: saline): 100 % of control
T/C (dose: 400.0 mg/kg/injection, schedule: Q07DX002 (ip), vehicle: saline): 120 % of control

C/C(=N/NC(N)=S)c1ccc2ccccc2c1
T/C (dose: 6.25 mg/kg/injection, schedule: Q07DX002 (ip), vehicle: saline with Tween-80): 111 % of control
T/C (dose: 12.5 mg/kg/injection, schedule: Q07DX002 (ip), vehicle: saline with Tween-80): 63 % of control
T/C (dose: 25.0 mg/kg/injection, schedule: Q07DX002 (ip), vehicle: saline with Tween-80): 70 % of control and 80 % of control
T/C [3]: 31 % of control and 48 % of control

CCN(CC)CCOC(=O)/C=C\c1cccc2c(=O)cc(-c3ccccc3)oc12
T/C [6]: 102 % of control
T/C [7]: 65 % of control
T/C [8]: 52 % of control

CC(=O)c1cccc(NC2C(N)C(NC(=O)N(C)C)(C(C)O)C(C)(O)C2(O)COC(=O)c2c(C)cccc2O)c1 (stereo not drawn)
T/C (dose: 1.0 mg/kg/injection, schedule: Q07DX002 (ip), vehicle: suspension in saline): 110 % of control
T/C (dose: 2.0 mg/kg/injection, schedule: Q07DX002 (ip), vehicle: suspension in saline): 152 % of control
T/C (dose: 4.0 mg/kg/injection, schedule: Q07DX002 (ip), vehicle: suspension in saline): 104 % of control
T/C (dose: 8.0 mg/kg/injection, schedule: Q07DX002 (ip), vehicle: suspension in saline): 71 % of control

O=C(O)CSc1c(Cl)c(=O)oc2ccc(Cl)cc12
T/C [4]: 93 % of control
T/C [5]: 113 % of control
T/C [6]: 81 % of control
T/C [7]: 120 % of control
